Laboratory results reported in patent US4263286A, “Therapeutic agent for consciousness disorder and perception and movement disorder” (Nippon Shoji Kaisha, Ltd., priority 1978, dated 1981).
Where a name gives a salt, the structure may show the parent alone.

What was measured:
[1] = tested on: rabbits whose internal capsule was destroyed; conditions: known therapeutic agents; already confirmed by experiments; cited from earlier work
male mice = experiment: Toxicity in male mice, tail intravenous; assay type: in vivo, mouse; conditions: 100 mg/kg tail intravenous over 30 seconds; observed 75 hours
sciatic nerve = experiment: Afferent evoked potential in the cerebral cortex in response to stimulation of the sciatic nerve; assay type: in vivo
Procedure: In order to test the effect of the active compound of the present invention on perception, an experiment was carried out on afferent evoked potential in response to stimulation of the sciatic nerve.
When the sciatic nerve is stimulated, the potential evoked in the cerebral cortex is recorded and summed up. These evoked electric potentials are firstly three small negative responses, subsequently a positive response and followed by two large negative responses, which are designated as N1, N2, N3, P, N4 and N5, respectively.
In order to examine the effect of a compound of the present invention: dilinoleoylphosphatidic acid disodium salt on these components, N1, N2, N3, P, N4 and N5, sciatic nerve was simulated once per 1 second and the data of 50 times of stimulus were recorded and summed up. The results are shown in the accompanying FIGS. 15, 16, 17, 18, 19 and 20 which correspond to the data of N1, N2, N3, P, N4 and N5, respectively.

ICR mice = experiment: 7-day toxicity in ICR mice; conditions: mouse, in vivo
Spragne-Dowley rats = experiment: 7-day toxicity in rats; conditions: rat, in vivo

Compound: C[N+](C)(C)CCOP(=O)(O)OP(=O)([O-])OC[C@H]1O[C@@H](n2ccc(N)nc2=O)[C@H](O)[C@@H]1O [Citicoline, cytidine diphosphate choline]
- effect on thresholds of evoked muscular discharge in fore- and hind-limbs [1]: decreasing effect of the thresholds of evoked muscular discharge

Compound: CN(C)CCOC(=O)COc1ccc(Cl)cc1.Cl [Meclofenoxate hydrochloride, (4-chlorophenoxy)acetic acid 2-(dimethylamino)ethyl ester hydrochloride]
- effect on thresholds of evoked muscular discharge in fore- and hind-limbs [1]: decreasing effect of the thresholds of evoked muscular discharge

Compound: Cc1ncc(CSSCc2cnc(C)c(O)c2CO)c(CO)c1O [Pyrithioxin, 3,3'-(dithiodimethylene)-bis[5-hydroxy-6-methyl-4-pyridinemethanol]]
- effect on thresholds of evoked muscular discharge in fore- and hind-limbs [1]: decreasing effect of the thresholds of evoked muscular discharge

Compound: CCCCC/C=C\C/C=C\CCCCCCCC(=O)OCC(COP(=O)(O)O)OC(=O)CCCCCCC/C=C\C/C=C\CCCCC (centres unmarked) [dilinoleoylphosphatidic acid disodium salt]
- mortality (male mice): no mouse was died
- effect on the afferent pathway (sciatic nerve; in vivo): facilitatory effect on the afferent pathway
- effect on evoked potential components N1 and N2 (sciatic nerve; stimulation once per 1 second, 50 summed, FIGS. 15, 16): facilitatory effect on the components, N1 and N2, particularly on N1

Compound: Cytochrome C: already used as therapeutic agent for the treatment of consciousness disorder and perception and movement disorder
- effect on thresholds of evoked muscular discharge in fore- and hind-limbs [1]: decreasing effect of the thresholds of evoked muscular discharge

Compound: polyenephosphatidylcholine
- difference between male and female (ICR mice): no difference between male and female
- symptoms (ICR mice): no abnormal symptom was observed except that the voluntary movement was slightly inhibited in the groups administered in a large dose
- difference between male and female (Spragne-Dowley rats): no difference between male and female
- symptoms (Spragne-Dowley rats): no abnormal symptom was observed except that the voluntary movement was slightly inhibited in the groups administered in a large dose
